Measurements taken from PMC12475174 (Scientific Reports, 2025).
Marks after values point to notes of the source that are not given here.

What was measured:
[1] = test system: Allium cepa root meristem cells; experiment: Chromosomal abnormality, MN and mitotic index test; assay type: in vivo; conditions: 0.0714 mg/L, 72 h germination
[2] = test system: Allium cepa root meristem cells; experiment: Comet assay; assay type: in vivo; conditions: 0.0714 mg/L, 72 h germination

With `[N-]=[N+]=[N-].[Na+]` [NaN3, sodium azide] the Binuclear cell ([1]; 1.000 cells per group) was 71.9 ± 3.95^a, the Bridge ([1]; 1.000 cells per group) was 48.3 ± 4.20^a and the Disorientation ([1]; 1.000 cells per group) was 56.4 ± 4.16^a. For the same molecule, the Fragment ([1]; 1.000 cells per group) was 34.9 ± 3.59^a, the Micronucleus ([1]; 1.000 cells per group) was 75.7 ± 8.27^a and the Nucleus bud ([1]; 1.000 cells per group) was 41.0 ± 3.81^a. For the same molecule, the Sticky chromosome ([1]; 1.000 cells per group) was 72.7 ± 4.74^a, the “Unequal distribution of chromatin” value ([1]; 1.000 cells per group) was 51.5 ± 3.72^a and the Vagrant chromosome ([1]; 1.000 cells per group) was 67.7 ± 3.82^a. For the same molecule, the Micronucleus ([1]; 1.000 cells per group, listed as NaN₃) was 75.7 ± 8.27, the “Mitotic index (%)” value ([1]; 10.000 cells per group) was 6.75% and the “Mitotic index: number of dividing cells” value ([1]; 10.000 cells per group) was 675 ± 11.2. The “Head DNA (%)” value [2] was 25.0 ± 1.35^e %, the Head density [2] was 75.475 and the “Head diameter (px)” value [2] was 8.000 px. The “Tail DNA (%)” value [2] was 75.0 ± 1.35^a %, the Tail density [2] was 196.278 and the “Tail length (px)” value [2] was 72.000 px. For the same molecule, the Tail moment [2] was 53.981 and the “Tail DNA (%)” value ([2]; listed as NaN₃) was 75.0 ± 1.35%.
